Legend:
Format in all cases: biochemical
ZAP kinase = target: T1, ZAP kinase (Homo sapiens, UniProt P43403); test: Assay for inhibition of ZAP kinase activity; conditions: fluorescence polarization, read-out: percentage inhibition at 20 μM
T1 construct: purchased Panvera P2782
T1 sequence (P43403 1-619): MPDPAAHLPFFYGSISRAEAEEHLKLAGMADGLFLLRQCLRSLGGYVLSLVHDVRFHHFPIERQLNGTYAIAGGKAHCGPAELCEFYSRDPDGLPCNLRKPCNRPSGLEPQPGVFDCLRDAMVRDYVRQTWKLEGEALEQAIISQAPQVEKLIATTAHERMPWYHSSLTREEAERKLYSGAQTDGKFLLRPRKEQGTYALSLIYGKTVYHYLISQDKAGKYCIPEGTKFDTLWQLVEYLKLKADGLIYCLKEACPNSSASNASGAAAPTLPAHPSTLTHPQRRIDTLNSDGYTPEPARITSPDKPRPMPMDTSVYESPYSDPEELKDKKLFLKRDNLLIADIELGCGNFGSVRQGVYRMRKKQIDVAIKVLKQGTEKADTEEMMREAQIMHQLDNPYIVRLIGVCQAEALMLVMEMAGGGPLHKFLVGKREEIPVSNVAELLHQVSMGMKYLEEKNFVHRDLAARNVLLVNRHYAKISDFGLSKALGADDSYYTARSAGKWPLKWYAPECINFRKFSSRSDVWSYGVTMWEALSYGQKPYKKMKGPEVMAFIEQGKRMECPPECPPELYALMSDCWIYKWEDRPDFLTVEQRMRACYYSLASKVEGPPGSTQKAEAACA
Protocol: The inhibition of the kinase activity is determined by fluorescence polarization, the ZAP kinase phosphorylates a peptide detected by adding an anti-phosphopeptide antibody coupled to a fluorescent label.
The assay is carried out in a final volume of 50 μl; all the reagents are prepared in a buffer: • 20 mM Tris/HCl pH 7.7 • 7 mM MnCl2 • 50 μM Na2VO4 5 μl of the 10-times concentrated inhibitor are added to 25 μl of enzyme (0.7 μg/ml final concentration) (Panvera ref P2782). After incubation for 5 minutes at ambient temperature, 10 μl of PolyGT (300 ng/ml final concentration) and 10 μl of ATP (0.25 μM final concentration) are added. The detection is carried out after incubation for 15 minutes at ambient temperature. • Results obtained expressed as percentage inhibition at 20 μM • Example 8 98% • Example 20 95% • Example 24 96% 7) Assay for Inhibition of Casein Kinase II Activity

AKT kinase = AKT kinase (Homo sapiens, UniProt P31749); test: Assay for inhibition of AKT activity; conditions: fluorescence polarization, ATP 80 μM; read-out: IC50s expressed as micromolar
Sequence of AKT kinase (P31749 whole entry): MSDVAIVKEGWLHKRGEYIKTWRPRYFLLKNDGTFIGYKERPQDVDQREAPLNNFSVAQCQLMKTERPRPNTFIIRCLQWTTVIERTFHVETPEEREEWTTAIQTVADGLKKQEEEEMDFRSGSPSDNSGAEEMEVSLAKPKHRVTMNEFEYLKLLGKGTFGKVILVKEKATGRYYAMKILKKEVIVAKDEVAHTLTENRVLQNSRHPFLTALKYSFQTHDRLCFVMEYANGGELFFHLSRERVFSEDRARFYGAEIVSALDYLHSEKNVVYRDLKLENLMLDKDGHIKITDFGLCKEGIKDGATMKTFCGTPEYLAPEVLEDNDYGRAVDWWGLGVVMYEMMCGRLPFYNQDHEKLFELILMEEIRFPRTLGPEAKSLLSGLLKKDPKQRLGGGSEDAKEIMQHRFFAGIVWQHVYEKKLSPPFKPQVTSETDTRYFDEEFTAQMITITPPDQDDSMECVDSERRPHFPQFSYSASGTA
Protocol: The inhibition of the kinase activity is determined by fluorescence polarization, the AKT kinase phosphorylates a peptide detected by adding an anti-phosphopeptide antibody coupled to a fluorescent label.
The assay is carried out in a final volume of 30 μl; all the reagents are prepared in a buffer: • 50 mM HEPES pH 7.5 • 0.03% triton X100 • 10 mM MgCl2 • 5% Glycerol • 1 mM DTT 10 μl of the 10-times concentrated inhibitor are added to 5 μl of enzyme (20 ng final concentration), and 5 μl of peptide (1 μM final concentration) and 10 μl of ATP (80 μM. final concentration) are added.

[1] = target: Cyclin Dependent kinase 2 (CDK2) (Homo sapiens, UniProt P24941); test: Assay for inhibition of CDK2 activity; conditions: [33P]ATP, read-out: percentage inhibition at 20 μM
Protocol: The inhibition of the kinase activity of Cyclin Dependent kinase 2 (CDK2) is determined by measuring the phosphorylation of its substrate peptide.
The assay is carried out in a final volume of 50 μl.
The incubation buffer as follows:
• 50 mM Hepes/NaOH pH 7.5 • 10 mM MgCl2 • 1 mM DTT 5 μl of the 10-times concentrated inhibitor are added to 25 μl of incubation buffer containing 0.8 U/μL final concentration of the enzyme; 10 μL of incubation buffer containing 0.0025 mg/ml of peptide substrate are then added and, finally, 10 μL of incubation buffer containing 2 mM ATP and radiolabeled ATP, [^33P]ATP (0.25 μCi), are added. The reaction is stopped after incubation for 10 minutes at 37° C. • Results obtained expressed as percentage inhibition at 20 μM • Example 2 97% • Example 27 97% • Example 30 99% 4) Assay for Inhibition of CDK1 Activity

| Compound | inhibition at 20 µM (ZAP kinase) [%] | IC50 (AKT kinase) [µM] | inhibition at 20 µM [1] [%] |
| --- | --- | --- | --- |
| Cl.N[C@H]1CC[C@H](Nc2nc(-n3cnc4cc(Cl)c(Cl)cc43)c3nc[nH]c3n2)CC1 [Example 8, Trans-N-[6-(5,6-dichloro-1H-benzimidazol-1-yl)-9H-purin-2-yl]-1,4-cyclohexanediamine hydrochloride] | 98 | 0.46 | – |
| Cl.Cl.N[C@H]1CC[C@H](Nc2nc(N3CCc4cc([N+](=O)[O-])ccc43)c3nc[nH]c3n2)CC1 [Example 30, Trans-N-[6-(2,3-dihydro-5-nitro-1H-indol-1-yl)-9H-purin-2-yl]-1,4-cyclohexanediamine dihydrochloride] | – | – | 99 |

— patent US7476670B2, “Purine derivatives, method for preparing, pharmaceutical compositions and novel use” (Aventis Pharma S.A., priority 2003, dated 2009)
